In patent US20230286975A1, “IMPROVED METHOD FOR THE PRODUCTION OF LYSERGIC ACID DIETHYLAMIDE (LSD) AND NOVEL DERIVATIVES THEREOF” (COMPASS […], priority 2020, published 2023):

Legend:
[1] = target: T1, Human recombinant dopamine D3 receptors (Homo sapiens, UniProt P35462); test: D3 receptor radioligand binding inhibition ([3H]Spiperone); settings: for inhibition at 10 µM: screened at 10 μM, mean of two replicates
T1 construct: expressed in transfected cells; host or cells: CHO
Description: (§1) Four novel LSD derivatives according to the present invention (referred to as “Compound 1”, “Compound 2”, “Compound 3”, and “Compound 4”; structures depicted below) were screened at 10 μM at key receptors of interest in order to determine % binding inhibition. Targets were selected due to prior evidence that LSD binds these targets with moderate or high affinities in vitro, as well as their functional significance in the context of human health.
(§2) Human recombinant dopamine D3 receptors expressed in CHO cells were used in modified Tris-HCl buffer pH 7.4. A 10 μg aliquot was incubated with 0.7 nM [^3H]Spiperone for 120 minutes at 37° C. Non-specific binding was estimated in the presence of 25 μM S(−)-sulpiride. Receptors were filtered and washed, the filters were then counted to determine [^3H]Spiperone specifically bound. Test compounds were screened at 10 μM.
(§3) Experimental results were expressed as a percent of control specific binding, via the equation: […]
(§4) For each target, data from two experimental replicates were averaged to generate a mean % inhibition.

[2] = target: T2, Human recombinant dopamine D2S receptors (Homo sapiens, UniProt P14416); test: D2S receptor radioligand binding inhibition ([3H]Spiperone); settings: for inhibition at 10 µM: screened at 10 μM, mean of two replicates
T2 construct: expressed in transfected cells; host or cells: CHO
T2 sequence (P14416 1-414 isoform P14416-2): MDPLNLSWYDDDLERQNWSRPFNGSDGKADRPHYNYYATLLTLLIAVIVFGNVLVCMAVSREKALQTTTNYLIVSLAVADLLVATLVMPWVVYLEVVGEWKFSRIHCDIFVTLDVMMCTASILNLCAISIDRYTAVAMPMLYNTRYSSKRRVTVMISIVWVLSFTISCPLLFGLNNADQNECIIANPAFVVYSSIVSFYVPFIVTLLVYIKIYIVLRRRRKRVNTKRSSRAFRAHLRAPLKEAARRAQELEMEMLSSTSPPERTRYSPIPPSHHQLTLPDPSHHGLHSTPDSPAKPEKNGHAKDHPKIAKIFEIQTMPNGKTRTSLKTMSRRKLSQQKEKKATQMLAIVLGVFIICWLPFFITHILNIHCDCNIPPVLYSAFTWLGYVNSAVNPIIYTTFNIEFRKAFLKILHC
Description: as §1
as §2, with “dopamine D2S” for “dopamine D3”, “A 15” for “A 10”, “with 0.16” for “with 0.7”, “at 25°” for “at 37°”, “of 10” for “of 25”, “μM haloperidol.” for “μM S(−)-sulpiride.”
as §3, §4

[3] = target: T3, Human recombinant serotonin 5-HT1A receptors (Homo sapiens, UniProt P08908); test: 5-HT1A receptor radioligand binding inhibition ([3H]8-OH-DPAT); settings: for inhibition at 10 µM: screened at 10 μM, mean of two replicates; for interaction at 5-HT1A receptor, in words: 10 μM, % inhibition greater than 50% interpreted as potentially significant interaction
T3 construct: expressed in transfected cells; host or cells: CHO-K1
T3 sequence (P08908 1-422): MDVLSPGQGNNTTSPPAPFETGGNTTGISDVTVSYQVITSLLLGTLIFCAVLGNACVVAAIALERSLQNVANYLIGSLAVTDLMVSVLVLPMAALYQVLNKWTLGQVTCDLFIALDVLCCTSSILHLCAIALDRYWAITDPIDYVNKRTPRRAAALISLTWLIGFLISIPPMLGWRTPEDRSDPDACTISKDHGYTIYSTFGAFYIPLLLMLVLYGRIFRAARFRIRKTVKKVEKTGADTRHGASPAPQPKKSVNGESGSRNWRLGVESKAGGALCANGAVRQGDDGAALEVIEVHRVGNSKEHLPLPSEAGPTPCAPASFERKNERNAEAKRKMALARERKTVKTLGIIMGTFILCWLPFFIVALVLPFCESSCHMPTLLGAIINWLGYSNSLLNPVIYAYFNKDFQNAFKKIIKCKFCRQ
Description: as §1
Human recombinant serotonin 5-HT1A receptors expressed in CHO-K1 cells were used in modified Tris-HCl buffer pH 7.4. An 8 μg aliquot of membrane protein was incubated with 1.5 nM [^3H]8-OH-DPAT for 60 minutes at 25° C. Non-specific binding was estimated in the presence of 10 μM metergoline. Receptors were filtered and washed, the filters were then counted to determine [^3H]8-OH-DPAT specifically bound. Test compounds were screened at 10 μM.
as §3, §4

[4] = target: T4, Human recombinant dopamine D2L receptor (Homo sapiens, UniProt P14416); test: D2L receptor radioligand binding inhibition ([3H]Spiperone); settings: for inhibition at 10 µM: screened at 10 μM, mean of two replicates
T4 construct: expressed in transfected cells; host or cells: CHO
T4 sequence (P14416 whole entry): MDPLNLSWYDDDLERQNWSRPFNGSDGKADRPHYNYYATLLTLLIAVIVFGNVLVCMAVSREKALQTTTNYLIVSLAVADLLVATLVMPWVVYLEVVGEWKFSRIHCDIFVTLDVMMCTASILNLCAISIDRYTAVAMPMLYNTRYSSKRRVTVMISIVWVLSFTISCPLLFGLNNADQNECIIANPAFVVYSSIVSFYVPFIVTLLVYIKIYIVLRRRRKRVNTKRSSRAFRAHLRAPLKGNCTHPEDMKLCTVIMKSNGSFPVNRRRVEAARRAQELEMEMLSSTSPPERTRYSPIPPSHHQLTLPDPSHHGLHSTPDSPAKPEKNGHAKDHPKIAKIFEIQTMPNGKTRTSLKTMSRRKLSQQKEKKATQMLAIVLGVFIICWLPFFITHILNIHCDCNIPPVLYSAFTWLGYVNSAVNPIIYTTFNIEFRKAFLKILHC
Description: as §1
as §2, with “dopamine D2L receptor” for “dopamine D3 receptors”, “A 20” for “A 10”, “with 0.16” for “with 0.7”, “at 25°” for “at 37°”, “of 10” for “of 25”, “μM haloperidol. Receptor proteins” for “μM S(−)-sulpiride. Receptors”
as §3, §4

[5] = target: T5, Human recombinant serotonin 5-HT2B receptor (Homo sapiens, UniProt P41595); test: 5-HT2B receptor radioligand binding inhibition ([3H]LSD); settings: for inhibition at 10 µM: screened at 10 μM, mean of two replicates
T5 construct: expressed in transfected cells; host or cells: CHO-K1
T5 sequence (P41595 whole entry): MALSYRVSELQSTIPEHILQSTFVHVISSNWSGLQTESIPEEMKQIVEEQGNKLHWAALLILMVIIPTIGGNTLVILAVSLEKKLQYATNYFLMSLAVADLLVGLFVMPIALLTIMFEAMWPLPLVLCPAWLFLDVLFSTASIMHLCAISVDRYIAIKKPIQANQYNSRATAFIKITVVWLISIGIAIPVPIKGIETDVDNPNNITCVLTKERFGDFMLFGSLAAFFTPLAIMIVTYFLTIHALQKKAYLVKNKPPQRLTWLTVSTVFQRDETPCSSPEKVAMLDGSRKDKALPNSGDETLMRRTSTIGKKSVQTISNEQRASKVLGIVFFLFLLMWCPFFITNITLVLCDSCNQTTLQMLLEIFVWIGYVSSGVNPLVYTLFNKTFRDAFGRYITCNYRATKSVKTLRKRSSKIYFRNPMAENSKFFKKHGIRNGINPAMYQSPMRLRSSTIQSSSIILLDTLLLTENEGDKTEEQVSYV
Description: as §1
Human recombinant serotonin 5-HT2B receptor expressed in CHO-K1 cells were used to prepare membranes in modified Tris-HCl buffer pH 7.4. A 30 μg aliquot of membrane protein was incubated with 1.2 nM [^3H]LSD for 60 minutes at 37° C. Non-specific binding was estimated in the presence of 10 μM serotonin. Membranes were filtered and washed, the filters were then counted to determine [^3H]LSD specifically bound. Test compounds were screened at 10 μM.
as §3, §4

[6] = target: T6, Human recombinant adenosine A2A receptors (Homo sapiens, UniProt P29274); test: A2A receptor radioligand binding inhibition ([3H]CGS-21680); settings: for inhibition at 10 µM: screened at 10 μM, mean of two replicates; for interaction at A2A receptor, in words: 10 μM, % inhibition greater than 50% interpreted as potentially significant interaction
T6 construct: expressed in transfected cells; host or cells: HEK-293
T6 sequence (P29274 whole entry): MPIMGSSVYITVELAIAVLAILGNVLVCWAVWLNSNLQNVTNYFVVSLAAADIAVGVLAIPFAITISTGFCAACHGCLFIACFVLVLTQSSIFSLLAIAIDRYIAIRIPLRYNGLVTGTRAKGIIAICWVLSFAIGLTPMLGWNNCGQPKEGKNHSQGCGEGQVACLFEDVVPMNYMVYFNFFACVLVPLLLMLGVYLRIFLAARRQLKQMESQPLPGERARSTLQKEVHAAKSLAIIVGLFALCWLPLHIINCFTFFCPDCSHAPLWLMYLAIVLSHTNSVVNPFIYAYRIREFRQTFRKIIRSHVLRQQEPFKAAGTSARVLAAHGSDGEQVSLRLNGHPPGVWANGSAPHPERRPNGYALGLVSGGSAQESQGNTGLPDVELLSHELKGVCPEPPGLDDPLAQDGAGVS
Description: as §1
Human recombinant adenosine A2A receptors expressed in human HEK-293 cells were used in modified Tris-HCl buffer pH 7.4. A 15 μg aliquot was incubated with 50 nM [^3H]CGS-21680 for 90 minutes at 25° C. Non-specific binding was estimated in the presence of 50 μM NECA. Receptor were filtered and washed, the filters were then counted to determine [^3H]CGS-21680 specifically bound. Test compounds were screened at 10 μM.
as §3, §4

[7] = target: T7, Human recombinant dopamine D1 receptors (Homo sapiens, UniProt P21728); test: D1 receptor radioligand binding inhibition ([3H]SCH-23390); settings: for inhibition at 10 µM: screened at 10 μM, mean of two replicates
T7 construct: expressed in transfected cells; host or cells: CHO
T7 sequence (P21728 whole entry): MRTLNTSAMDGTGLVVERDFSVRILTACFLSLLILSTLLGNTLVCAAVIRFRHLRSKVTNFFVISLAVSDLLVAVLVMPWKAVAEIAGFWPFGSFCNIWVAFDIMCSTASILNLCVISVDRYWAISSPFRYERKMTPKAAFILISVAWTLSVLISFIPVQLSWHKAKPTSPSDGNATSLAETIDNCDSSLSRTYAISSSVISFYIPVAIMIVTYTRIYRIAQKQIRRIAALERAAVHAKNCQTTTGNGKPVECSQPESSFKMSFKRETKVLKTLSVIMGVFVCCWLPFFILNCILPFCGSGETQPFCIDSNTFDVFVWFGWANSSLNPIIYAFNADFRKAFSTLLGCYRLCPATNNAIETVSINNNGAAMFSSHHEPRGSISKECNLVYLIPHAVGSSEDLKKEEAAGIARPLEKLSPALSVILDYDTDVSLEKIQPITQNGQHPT
Description: as §1
Human recombinant dopamine D1 receptors expressed in CHO cells were used in modified Tris-HCl buffer pH 7.4. A 20 μg aliquot was incubated with 1.4 nM [^3H]SCH-23390 for 120 minutes at 37° C. Non-specific binding was estimated in the presence of 10 μM (+)-butaclamol. Receptors were filtered and washed, the filters were then counted to determine [^3H]SCH-23390 specifically bound. Test compounds were screened at 10 μM.
as §3, §4

[8] = target: T8, Human recombinant serotonin 5-HT2A receptors (Homo sapiens, UniProt P28223); test: 5-HT2A receptor radioligand binding inhibition ([3H]Ketanserin); settings: for inhibition at 10 µM: screened at 10 μM, mean of two replicates; for interaction at 5-HT2A receptor, in words: 10 μM, % inhibition greater than 50% interpreted as potentially significant interaction; for selectivity as ligand of the 5-HT2A receptor, in words: conclusion from % inhibition at 10 μM over ten receptors
T8 construct: expressed in transfected cells; host or cells: CHO-K1
T8 sequence (P28223 whole entry): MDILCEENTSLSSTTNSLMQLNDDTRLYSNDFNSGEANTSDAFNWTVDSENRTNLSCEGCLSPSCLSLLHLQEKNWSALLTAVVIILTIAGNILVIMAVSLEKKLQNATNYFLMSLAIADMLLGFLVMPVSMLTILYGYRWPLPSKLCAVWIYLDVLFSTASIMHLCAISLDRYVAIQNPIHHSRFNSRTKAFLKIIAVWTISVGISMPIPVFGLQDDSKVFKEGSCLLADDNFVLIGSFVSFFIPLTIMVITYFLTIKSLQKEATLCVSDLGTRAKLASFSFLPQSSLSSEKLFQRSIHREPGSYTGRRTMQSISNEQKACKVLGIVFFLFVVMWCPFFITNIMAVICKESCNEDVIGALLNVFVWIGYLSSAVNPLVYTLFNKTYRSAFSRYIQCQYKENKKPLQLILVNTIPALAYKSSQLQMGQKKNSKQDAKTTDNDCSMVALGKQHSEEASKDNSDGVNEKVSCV
Description: as §1
Human recombinant serotonin 5-HT2A receptors expressed in CHO-K1 cells were used in modified Tris-HCl buffer pH 7.4. A 30 μg aliquot of membrane protein was incubated with 0.5 nM [^3H]Ketanserin for 60 minutes at 25° C. Non-specific binding was estimated in the presence of 1 μM Mianserin. Receptors were filtered and washed, the filters were then counted to determine [^3H]Ketanserin specifically bound. Test compounds were screened at 10 μM.
as §3, §4

[9] = target: T9, human recombinant serotonin 5-HT2c receptors (Homo sapiens, UniProt P28335); test: 5-HT2C receptor radioligand binding inhibition ([3H]Mesulergine); settings: for inhibition at 10 µM: screened at 10 μM, mean of two replicates; for interaction at 5-HT2C receptor, in words: 10 μM, % inhibition greater than 50% interpreted as potentially significant interaction
T9 construct: expressed in transfected cells; host or cells: CHO-K1 (stably transfected)
T9 sequence (P28335 33-458): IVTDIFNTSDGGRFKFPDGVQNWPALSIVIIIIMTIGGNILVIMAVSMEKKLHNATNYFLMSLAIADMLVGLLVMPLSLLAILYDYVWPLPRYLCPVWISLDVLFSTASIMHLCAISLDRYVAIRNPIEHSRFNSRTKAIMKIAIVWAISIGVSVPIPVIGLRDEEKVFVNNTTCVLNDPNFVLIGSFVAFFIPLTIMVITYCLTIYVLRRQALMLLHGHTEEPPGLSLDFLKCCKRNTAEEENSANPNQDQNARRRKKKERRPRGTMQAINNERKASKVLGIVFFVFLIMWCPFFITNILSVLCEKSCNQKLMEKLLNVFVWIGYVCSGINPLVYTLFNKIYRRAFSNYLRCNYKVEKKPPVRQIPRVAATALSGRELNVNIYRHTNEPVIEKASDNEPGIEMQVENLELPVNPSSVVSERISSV
Description: as §1
CHO-K1 cells stably transfected with a plasmid encoding the human recombinant serotonin 5-HT2c receptors were used to prepare membranes in modified Tris-HCl buffer pH 7.4. A 3.2 μg aliquot of membrane protein was incubated with 1.0 nM [^3H]Mesulergine for 60 minutes at 25° C. Non-specific binding was estimated in the presence of 1 μM Mianserin. Membranes were filtered and washed, the filters were then counted to determine [^3H]Mesulergine specifically bound. Test compounds were screened at 10 μM.
as §3, §4

[10] = test system: human dopamine D4.7 receptor; test: D4.7 receptor radioligand binding inhibition ([3H]Spiperone); settings: for interaction at D4.7 receptor, in words: 10 μM, % inhibition greater than 50% interpreted as potentially significant interaction; for % inhibition, D4.7: screened at 10 μM, mean of two replicates
Description: as §1
CHO-K1 cells stably transfected with a plasmid encoding the human dopamine D4.7 receptor were used to prepare membranes in modified Tris-HCl buffer pH 7.4. A 60 μg aliquot of membrane was incubated with 1.5 nM [^3H]Spiperone for 120 minutes at 25° C. Non-specific binding was estimated in the presence of 10 μM haloperidol. Membranes were filtered and washed, the filters were then counted to determine [^3H]Spiperone specifically bound. Test compounds were screened at 10 μM.
as §3, §4

[11] = 10 μM, % inhibition greater than 50% interpreted as potentially significant interaction

T1 sequence (P35462 whole entry): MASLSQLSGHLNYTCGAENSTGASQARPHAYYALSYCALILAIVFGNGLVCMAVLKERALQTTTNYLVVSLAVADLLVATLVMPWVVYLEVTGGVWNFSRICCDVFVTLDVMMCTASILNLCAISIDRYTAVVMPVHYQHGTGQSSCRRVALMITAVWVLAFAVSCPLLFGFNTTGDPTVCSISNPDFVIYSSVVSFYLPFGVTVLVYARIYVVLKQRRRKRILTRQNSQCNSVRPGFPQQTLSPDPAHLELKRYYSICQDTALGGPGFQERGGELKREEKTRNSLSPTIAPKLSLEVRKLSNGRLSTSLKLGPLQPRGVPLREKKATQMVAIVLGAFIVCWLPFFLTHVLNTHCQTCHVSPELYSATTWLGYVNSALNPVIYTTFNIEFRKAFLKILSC

Structure (SMILES)	inhibition at 10 µM [1] [%]	inhibition at 10 µM [2] [%]	inhibition at 10 µM [3] [%]	inhibition at 10 µM [4] [%]	inhibition at 10 µM [5] [%]	inhibition at 10 µM [6] [%]	inhibition at 10 µM [7] [%]	inhibition at 10 µM [8] [%]	inhibition at 10 µM [9] [%]	interaction at 5-HT1A receptor, in words [3]	interaction at D4.7 receptor, in words [10]	% inhibition, D4.7 [10] [%]	interaction at A2A receptor, in words [6]	interaction at 5-HT2A receptor, in words [8]	selectivity as ligand of the 5-HT2A receptor, in words [8]	interaction at 5-HT2C receptor, in words [9]	other results
CN1CC(C(=O)N2CC3(COC3)C2)C=C2c3cccc4[nH]cc(c34)CC21 (centres unmarked) [Compound 1, 2-oxa-6-azaspiro[3.3]heptyl-lysergic acid amide]	94.5	83.1	96.3	78.8	96.8	-12.3	85.6	95.3	85.8								
CCN(CC)C(=O)C1C=C2c3cccc4[nH]cc(c34)CC2N(CCF)C1 (centres unmarked) [Compound 2, 6-(2-mono-fluoro-ethyl)-6-nor-lysergic acid diethylamide]	14.2	0.6	100	7.9	90.5	-2.5	4.3	95.7	4.8	very high % inhibition	no significant interaction	2.8	no significant interaction	very high % inhibition	advantageously selective ligands of the 5-HT2A receptor	no significant interaction	interaction at D3 receptor, in words [1, 11]: no significant interaction; interaction at D2S receptor, in words [2, 11]: no significant interaction; interaction at D2L receptor, in words [4, 11]: no significant interaction; interaction at D1 receptor, in words [7, 11]: no significant interaction
CN1CC(C(=O)NCC(F)(F)F)C=C2c3cccc4[nH]cc(c34)CC21 (centres unmarked) [Compound 3, lysergic acid mono-(trifluoroethyl)amide]	94.7	64.2	101	63.1	94.9	-2	53.8	93.1	89.4	significant interaction	no significant interaction	20.1	no significant interaction	significant interaction	advantageously selective ligands of the 5-HT2A receptor	significant interaction	D3 % inhibition compared with other dopamine receptors, in words ([1]; 10 μM, may indicate greater selectivity for D3): higher % inhibition than at other dopamine receptors; interaction at 5-HT2B receptor, in words [5, 11]: significant interaction
CCN(CCF)C(=O)C1C=C2c3cccc4[nH]cc(c34)CC2N(C)C1 (centres unmarked) [Compound 4, lysergic acid monofluoro diethylamide]	97.7	92.1	100	92.7	97.9	12.3	97.1	97.1	100			71.6	no significant interaction		advantageously selective ligands of the 5-HT2A receptor		
